Square brackets hold non-standard residues; d marks the D form. Bounds are passed on as bounds.

The conditions of data set [1]: 37° C. The protocol: The samples were incubated at 37° C. An extraction (for extraction method with acetonitrile, see Item 7.3 below) of each product was carried out in triplicate at time 0 and after 1, 2, 4 and 6 hours of incubation.
10 μl of internal standard (prolyl-daunorubicin) and […] 150 μl of acetonitrile were added into tubes containing 50 μl of the sample to be extracted. The tubes were stirred and centrifuged for 10 minutes to 13000 g. The supernatant was diluted 4 times in a formate buffer, pH 4, centrifuged, then analyzed by HPLC (see Item 7.3 below).
At different time points, the concentrations of the conjugates and possible metabolites formed were evaluated by HPLC. FIG. 7 illustrates the variations of the concentration of products based on the incubation time.

Data set [2] has as its system LS-174T human tumor xenografts. Kind of data set: Efficacy study in LS-174T human colon carcinoma xenograft model. As to conditions: for T/C min / specific growth delay (SGD): LS-174T, Suc-beta-ALAL-Dox 50 μmol/kg, PEG2000-(DSer)4-ALAL-Dox 1×50+3×35 μmol/kg, i.v. days 0, 7, 14, 21; for body weight loss: as of the second week of weekly i.v. treatment. Background: In xenograft studies the graft and the host belong to different species.
Description: The experimental chemotherapy studies were carried out on athymic mice that carried LS-174T or HCT 116 (colon carcinomas) tumors of human origin previously grafted subcutaneously.
The mice were selected and distributed into the different groups of the study so as to have equal distributions of tumor volumes. The different treatments were randomly assigned to the groups so formed.
Treatments were administered intravenously in the caudal vein. During these injections, the animals received a constant volume of 10 μl/g of product (Workman et al., 1998). After the injection, the clinical signs were duly followed (each hour during the first day, and daily until the end of the study), as well as the weight that was measured at the same time as the tumor volume (mm^3). The growth of the tumor was monitored 2× per week by measuring, with the aid of a caliper, two perpendicular diameters (or “diagonals”) of the tumor (the largest and the smallest “diagonal”).
To determine the variations of the tumor volume of the different groups, the median of the relative tumor volumes (RTV for “relative tumor volume”) that express in percent the variations of the medians of the tumor volumes relative to day 0 was calculated. To estimate the effect of the various treatments, the inhibition of the growth was determined by calculating the ratio between the median of the RTV of the treated groups (T) and that of control group (C) that is expressed by percentage (T/C(%)).
The lowest value of the T/C ratio was used as a parameter to estimate the maximum efficacy of the products that were evaluated.
The Specific Growth Delay (SGD) was also calculated as (DTtreated−DTcontrol)/(DTcontrol).
For these reasons, growth delays (T-C) and specific growth delays (SGD) were calculated from linear regressions of different phases that characterize the growth of the tumors.
The products were injected intravenously (10 μl/g, 6 mice per group).
The administered doses were reduced starting from day 7.

Data set [3] deals with HCT-116 human colon carcinoma xenograft. In words: Chemotherapy study in HCT-116 human colon carcinoma xenograft model. The data set is classed as in vivo, mice. The source says:
The anti-tumor efficacy of PEG2000-(DSer)4-ALAL-Dox was compared to that of succinyl-βALAL-Dox in an HCT-116 human colon carcinoma xenograft model that was implanted subcutaneously in Swiss nude/nude mice. The animals received 5 i.v. bolus injections (for 5 consecutive days) of succinyl-βALAL-Dox at 30 μmol/kg or PEG2000-(DSer)4-ALAL-Dox at 53 and 110 μmol/kg (6 mice/group). […] The results of FIG. 8 show the variations of the body weight of the animals. […] The anti-tumor efficacy is shown by the T/C curve that comprises two phases (FIG. 9). […] In the second phase, the activity of the PEGylated derivative (110 μmol/kg) decreased relative to that of succinyl-PALAL-Dox. […] The MTD of the PEGylated derivative was not reached in this study.
The anti-tumor efficacy of PEG2000-(DSer)4-ALAL-Dox was compared to that of PEG2000-ALAL-Dox in an HCT-116 human colon carcinoma xenograft model implanted subcutaneously in Swiss nude/nude mice. The animals received 5 i.v. bolus injections (for 5 consecutive days) of the compounds at doses of 200, 300, and 400 μmol/kg (5 mice/group). Contrary to PEG2000-ALAL-Dox, PEG2000-(DSer)4-ALAL-Dox was toxic at 300 and 400 μmol/kg and induced a weight loss and the death of the animals (FIG. 10).

Data set [4] has as its system LS-174T human colon cancer xenografts. Kind of data set: In vivo tumor reactivation of PEGylated prodrug derivatives (Dox and Leu-Dox accumulated in tumor). As to conditions: i.v. bolus 69 μmol/kg, LS-174T tumor.
Data set [5] has as its system MCF-7/6 cells. Kind of data set: Cytotoxicity test (WST-1 cell viability). As to conditions: read-out: IC50 (50% inhibiting concentration), 48 hours incubation + 24 hours drug-free post-incubation. The data set is classed as cell-based, human.
Description: The cytotoxicity tests of doxorubicin and derivatives were carried out with MCF-7/6 cells and LNCaP cells.
The cells were collected by trypsinization, counted, and then inoculated in 96-well plates in 200 μl of serum-containing medium.
The cells were incubated for 24 hours at 37° C. before the addition of the products to be tested:
diluted to various concentrations in the serum-containing culture medium. After an incubation of 48 hours in the presence of various compounds, the cells were finally post-incubated at 37° C. for 24 hours in the presence of drug-free serum-containing medium. After this incubation period, a cell viability test was carried out (WST-1, Roche Molecular Biochemical, Mannheim, Germany).
They were then post-incubated for 24 hours in drug-free serum containing medium. The cytotoxicity of the products was estimated by a cell viability test (WST-1, Roche Molecular Diagnostic, Mannheim, Germany).
The mark [6] stands for this setting: 1×50+3×35 μmol/kg vs doxorubicin 6.69 μmol/kg.

Regarding `COc1cccc2c1C(=O)c1c(O)c3c(c(O)c1C2=O)CC(O)(C(=O)CO)CC3OC1CC(NC(=O)C(CC(C)C)NC(=O)C(C)NC(=O)C(CC(C)C)NC(=O)C(C)N)C(O)C(C)O1` (stereo not drawn) [ALAL-Dox, Ala-Leu-Ala-Leu-doxorubicin, reference compound], the stability in blood result in data set [1] (20 μM in citrated human blood) is reported as “not stable in blood”. For the same molecule, the “starting product degraded in Leu-Dox and Dox” value in data set [1] (after 1 hour, whole human blood) amounted to 80%.
With `COc1cccc2c1C(=O)c1c(O)c3c(c(O)c1C2=O)CC(O)(C(=O)CO)CC3OC1CC(NC(=O)C(CC(C)C)NC(=O)C(C)NC(=O)C(CC(C)C)NC(=O)CCNC(=O)CCC(=O)O)C(O)C(C)O1` (stereo not drawn) [Suc-beta-ALAL-Dox, succinyl-beta-Ala-Leu-Ala-Leu-doxorubicin, reference compound], in data set [2], the T/C min amounted to 26.6%, the “specific growth delay (SGD)” value is 3.02 and the body weight loss result is given as “slight weight loss”. The molecule also displayed a maximum weight loss in data set [2] (day 32, 45 and 50 μmol/kg groups) of 10%. In data set [3] (30 μmol/kg ×5 i.v., end of the study, day 49), the body weight loss entry is “about 20%”. In data set [4] (2 hours after injection), the “DOX concentration in tumor” value came out at 1.93 nmol/mg and the “Leu-DOX concentration in tumor” value is 4.64 nmol/mg. In data set [4] (72 hours after injection), the “DOX concentration in tumor” value is listed as 5.41 nmol/mg and the “Leu-DOX concentration in tumor” value was 0.05 nmol/mg.
For the molecule `COc1cccc2c1C(=O)c1c(O)c3c(c(O)c1C2=O)C[C@@](O)(C(=O)CO)C[C@@H]3O[C@H]1C[C@H](N)[C@H](O)[C@H](C)O1` [doxorubicin, reference compound], the body weight loss result in data set [2] is listed as “no significant weight loss”.
Take “PEG2000-(DSer)4-Ala-Leu-Ala-Leu-doxorubicin (PEG2000-[dS][dS][dS][dS]ALAL-doxorubicin) [PEG2000-(DSer)4-ALAL-Dox]”: in data set [1] (at 6 hours, whole human blood), the “hydrolysis: Dox formed” value came to 5% and the “hydrolysis: L-Dox (Leu-Dox) formed” value is on record as 5%. Moreover, in data set [2] (setting [6]), the “activity during the first growth phase” value is listed as “comparable to that of doxorubicin”; the “activity during the second growth phase” value was “more active than doxorubicin and as active as Suc-beta-ALAL-Dox”. In data set [2], the T/C min came to 38%, the “specific growth delay (SGD)” value is recorded as 1,58 and the body weight loss entry is listed as “no significant weight loss”. Moreover, in data set [2] (initial i.v. bolus at 50 μmol/kg and 45 μmol/kg, 6 mice per group), the deaths result is “One death”. Moreover, the anti-tumor effect result in data set [3] (53 μmol/kg ×5 i.v.) is “induced a tumor regression for the week of treatment”. In addition, in data set [3] (53 and 110 μmol/kg, 5 i.v. bolus injections), the toxicity entry was “no toxicity”. Also, the “toxicity (weight loss and death of the animals)” value in data set [3] (300 and 400 μmol/kg, 5 i.v. bolus injections on 5 consecutive days) is “toxic”. In addition, the anti-tumor efficacy result in data set [3] (equimolar non-toxic dose 200 μmol/kg ×5 i.v.) is “better anti-tumor efficacy than that of PEG2000-ALAL-Dox”. In data set [3] (up to 110 μmol/kg ×5 i.v.), the “maximum tolerated dose (MTD)” value is “not reached”.
“PEG2000-(DSer)4-beta-Ala-Leu-Ala-Leu-doxorubicin [PEG2000-(DSer)4-beta-ALAL-Dox]”: in data set [5], the IC50 was determined as 251 µM.
On the same count and under the same terms, with “PEG2000-beta-Ala-Leu-Ala-Leu-doxorubicin [PEG2000-beta-ALAL-Dox]” the figure was over 500 µM.

Source of the values: US20060281897A1, “Potentialization of the activation of high molecular weight prodrugs” (priority 2003, published 2006).
